Data reported in PMC7738283, “Discovery of orally active chalcones as histone lysine specific demethylase 1 inhibitors for the treatment of leukaemia” (Journal of Enzyme Inhibition and Medicinal Chemistry, 2020).
“Also recorded” adds a separate entry of the source.

How the values were obtained:
[1] = biological target: T1, MAO-B (Homo sapiens, UniProt P27338); experiment: MAO-B inhibition assay (MAO-Glo kit); type: biochemical; conditions: for IC50: in vitro, MAO-AB [sic]
T1 construct: purchased Active Motif 31503
T1 sequence (P27338 1-520): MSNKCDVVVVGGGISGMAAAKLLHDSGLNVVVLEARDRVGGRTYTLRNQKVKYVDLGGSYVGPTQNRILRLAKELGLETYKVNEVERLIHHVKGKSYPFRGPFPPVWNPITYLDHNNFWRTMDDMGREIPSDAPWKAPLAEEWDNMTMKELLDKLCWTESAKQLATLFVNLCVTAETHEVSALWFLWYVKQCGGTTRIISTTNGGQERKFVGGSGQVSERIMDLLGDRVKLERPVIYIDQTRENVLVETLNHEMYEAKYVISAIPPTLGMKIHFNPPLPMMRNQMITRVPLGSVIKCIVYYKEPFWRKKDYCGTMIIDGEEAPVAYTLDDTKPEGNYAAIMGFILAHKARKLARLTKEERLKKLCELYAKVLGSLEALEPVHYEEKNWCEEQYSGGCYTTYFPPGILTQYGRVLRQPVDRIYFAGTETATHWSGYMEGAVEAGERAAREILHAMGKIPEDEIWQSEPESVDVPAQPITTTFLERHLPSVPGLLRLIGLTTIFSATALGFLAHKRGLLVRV
Description: (§1) The inhibition of LSD1 activity was evaluated according to reported references. pET-28b-LSD1 (full length) was transfected into BL21 (DE). Then, the protein was induced with 0.25 mmol/L IPTG following sonication and purified with Ni-NTA (Qiagen, Tubingen, Germany), Resource Q (GE, Pittsburgh, PA, USA) and Sephacryl S-200 HR (GE, Pittsburgh, PA, USA). The fluorescence intensity was read using EnVision Plate Reader (PerkinElmer, Waltham, MA, USA) to calculate the inhibition rate. The MAO-A and MAO-B were purchased from Active Motif (Cat#31502, Cat#31503, Carlsbad, CA, USA). Biochemical Kits were purchased from Promega (MAO-Glo Assay, Madison, WI, USA). The inhibitory activities of MAO-A and MAO-B were obtained according to the reported reference. The inhibitory activities of CDK1 and CDK2 were obtained according to the reported reference.

[2] = biological target: T2, LSD1 (Homo sapiens, UniProt O60341); experiment: LSD1 enzyme inhibition assay (recombinant LSD1, fluorescence); type: biochemical; conditions: for IC50: in vitro
T2 construct: pET-28b-LSD1 (full length) was transfected into BL21 (DE); inferred from the pET-28b vector and Ni-NTA purification; made in house; host or cells: E. coli BL21 (DE)
Description: (§3) The inhibition of LSD1 activity was evaluated according to reported references [23, 24]. pET-28b-LSD1 (full length) was transfected into BL21 (DE). Then, the protein was induced with 0.25 mmol/L IPTG following sonication and purified with Ni-NTA (Qiagen, Tubingen, Germany), Resource Q (GE, Pittsburgh, PA, USA) and Sephacryl S-200 HR (GE, Pittsburgh, PA, USA). The fluorescence intensity was read using EnVision Plate Reader (PerkinElmer, Waltham, MA, USA) to calculate the inhibition rate. […] The inhibitory activities of CDK1 and CDK2 were obtained according to the reported reference [26].

[3] = biological target: T3, MAO-A (Homo sapiens, UniProt P21397); experiment: MAO-A inhibition assay (MAO-Glo kit); type: biochemical; conditions: for IC50: in vitro
T3 construct: purchased Active Motif 31502
T3 sequence (P21397 1-527): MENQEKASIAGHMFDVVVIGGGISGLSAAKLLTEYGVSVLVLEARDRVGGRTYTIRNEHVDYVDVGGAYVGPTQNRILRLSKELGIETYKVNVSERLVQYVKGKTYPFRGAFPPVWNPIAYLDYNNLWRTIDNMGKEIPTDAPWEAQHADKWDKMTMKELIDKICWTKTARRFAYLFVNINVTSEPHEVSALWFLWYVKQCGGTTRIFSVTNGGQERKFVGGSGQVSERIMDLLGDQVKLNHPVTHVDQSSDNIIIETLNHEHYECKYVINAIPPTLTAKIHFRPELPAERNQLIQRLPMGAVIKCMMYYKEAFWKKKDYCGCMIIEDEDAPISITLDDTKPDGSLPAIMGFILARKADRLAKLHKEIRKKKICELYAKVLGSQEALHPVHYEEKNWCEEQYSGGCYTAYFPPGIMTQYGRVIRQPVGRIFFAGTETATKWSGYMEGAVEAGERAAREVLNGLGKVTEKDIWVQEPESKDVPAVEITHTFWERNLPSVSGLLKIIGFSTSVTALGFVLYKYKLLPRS
Description: as §1

[4] = system: Caco-2 (colon cancer cells); experiment: MTT cell viability assay, Caco-2; type: cell-based; conditions: 4, 8, 16 μM; 48 h and 72 h
Description: (§2) Cancer cell lines (Hela, 22RV1, Caco-2, BEL-7402, MOLT-4, OVCAR-3, HCT-8, HIC, IMR-32, HAL-01, KE-37, P30-OHK, SUP-B15 and LC4-1) were maintained in RPMI 1640 medium (Hyclone, Los Angeles, CA, USA) with 10% foetal bovine serum (Hyclone, Los Angeles, USA) and 1% penicillin-streptomycin (Hyclone, Los Angeles, USA) in a humidified atmosphere of 5% CO2 and 95% air at 37 °C. All cell lines were purchased from the China Centre for Type Culture Collection (CCTCC, China). Control containing sequence specific for LSD1 ([…]) was described. The shRNA constructs were transfected into MOLT-4 cells using the Lonza Group nucleofector technology in accordance with the manufacturer’s instructions. MOLT-4&shLSD1 cells and MOLT-4&shControl cells were also established and cultured according to the published references. After the incubation for 24 h, cancer cell lines were cultured with the chalcone D6 at different concentrations. Then, 20 μL of MTT (3–(4,5-dimethylthiazol-2-yl)-2,5-diphenyltetrazolium bromide) solution (5 mg/ml) was added and the cells were incubated for 4 h. The absorbance was measured using a microplate reader (DeTie Technology Co., Ltd, NanJing, China).

[5] = system: IMR-32 (neuroblastoma cells); experiment: MTT cell viability assay, IMR-32; type: cell-based; conditions: 4, 8, 16 μM; 48 h and 72 h
Description: as §2

[6] = system: H3K9me1 and H3K9me2 in MOLT-4 cells; experiment: Western blotting of LSD1 substrates H3K9me1/2 in MOLT-4 cells; type: cell-based, human; conditions: western blot
Description: Western blot was performed with the total lysates using RIPA buffer (Hyclone, Los Angeles, CA, USA). Same amounts of protein were subjected to SDS-PAGE, and then transferred to nitrocellulose membranes (PALL, Cortland, NY, USA). After blocking with 5% milk solution, the membranes were incubated at 4 °C with respective antibody overnight, followed by the incubation with a secondary antibody. Finally, the blot was visualised by enhanced chemiluminescence kit (Thermo Fisher, Waltham, MA, USA).

[7] = system: MOLT-4 xenograft; experiment: MOLT-4 xenograft study; type: in vivo; conditions: 60 mg/kg and 100 mg/kg, intragastric, 21 days
Description: Animals were treated according to the protocols established by the ethics committee of Shengjing Hospital of China Medical University and the in vivo experiments were carried out in accordance with the approved guidelines and approved by the ethics committee of Shengjing Hospital of China Medical University. BALB/c nude mice were purchased from Hunan Slack Scene of Laboratory Animal Co., Ltd. (Hunan, China). Xenograft models using human leukaemia cells, MOLT-4, were established in BALB/c mice. Then, mice were separated into vehicle group and treatment groups (60 mg/kg and 100 mg/kg). The treatment groups received compound D6 by intragastric administration for a period of 21 days.

[8] = biological target: CDK2 (Homo sapiens, UniProt P24941); experiment: CDK2 enzyme assay; type: biochemical; conditions: 400 nM; read-out: inhibition rate CDK2
Description: as §3

[9] = system: MOLT-4 cells; experiment: MTT cell viability assay, MOLT-4; type: cell-based, human
Description: (§4) All cell lines were purchased from the China Centre for Type Culture Collection (CCTCC, China). […] Then, 20 μL of MTT (3–(4,5-dimethylthiazol-2-yl)-2,5-diphenyltetrazolium bromide) solution (5 mg/ml) was added and the cells were incubated for 4 h. The absorbance was measured using a microplate reader (DeTie Technology Co., Ltd, NanJing, China).

[10] = biological target: CDK1 (Homo sapiens, UniProt P06493); experiment: CDK1 enzyme assay; type: biochemical; conditions: 400 nM; read-out: inhibition rate CDK1
Description: as §3

[11] = system: 22RV1 (prostate cancer cells); experiment: MTT cell viability assay, 22RV1; type: cell-based; conditions: 4, 8, 16 μM; 48 h and 72 h
Description: as §2

[12] = system: KE-37 cells; experiment: MTT cell viability assay, KE-37; type: cell-based; conditions: Homo sapiens, KE-37 leukaemia cells, read-out: IC50 cell proliferation KE-37
Description: as §4

[13] = system: P30-OHK cells; experiment: MTT cell viability assay, P30-OHK; type: cell-based; conditions: Homo sapiens, P30-OHK leukaemia cells, read-out: IC50 cell proliferation P30-OHK
Description: as §4

[14] = system: SUP-B15 cells; experiment: MTT cell viability assay, SUP-B15; type: cell-based; conditions: Homo sapiens, SUP-B15 leukaemia cells, read-out: IC50 cell proliferation SUP-B15
Description: as §4

[15] = system: LC4-1 cells; experiment: MTT cell viability assay, LC4-1; type: cell-based; conditions: Homo sapiens, LC4-1 leukaemia cells, read-out: IC50 cell proliferation LC4-1
Description: as §4

[16] = system: HAL-01 cells; experiment: MTT cell viability assay, HAL-01; type: cell-based; conditions: Homo sapiens, HAL-01 leukaemia cells, read-out: IC50 cell proliferation HAL-01
Description: as §4

CDK1, sequence (P06493 whole entry, species assumed): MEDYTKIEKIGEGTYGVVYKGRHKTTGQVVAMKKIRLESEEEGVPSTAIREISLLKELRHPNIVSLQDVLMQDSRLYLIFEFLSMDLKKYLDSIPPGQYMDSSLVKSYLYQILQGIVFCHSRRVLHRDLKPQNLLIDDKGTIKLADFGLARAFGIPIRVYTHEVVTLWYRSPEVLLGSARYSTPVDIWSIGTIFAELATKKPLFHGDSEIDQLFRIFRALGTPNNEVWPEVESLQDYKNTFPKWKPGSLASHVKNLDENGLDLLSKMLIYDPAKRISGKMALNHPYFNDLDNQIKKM
CDK1, sequence (P14635 whole entry partner, species assumed): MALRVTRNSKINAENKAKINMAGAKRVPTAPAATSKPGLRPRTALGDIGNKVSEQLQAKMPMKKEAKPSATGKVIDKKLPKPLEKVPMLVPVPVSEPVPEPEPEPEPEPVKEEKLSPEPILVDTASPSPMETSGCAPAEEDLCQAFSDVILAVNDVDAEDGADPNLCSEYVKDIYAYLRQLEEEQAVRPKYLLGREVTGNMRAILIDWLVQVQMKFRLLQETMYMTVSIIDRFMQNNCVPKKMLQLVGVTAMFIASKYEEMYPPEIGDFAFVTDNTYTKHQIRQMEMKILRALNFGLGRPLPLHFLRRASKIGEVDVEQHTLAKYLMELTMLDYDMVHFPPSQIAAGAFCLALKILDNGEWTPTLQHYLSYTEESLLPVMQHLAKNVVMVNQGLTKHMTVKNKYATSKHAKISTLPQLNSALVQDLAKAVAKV

Structure (SMILES) | IC50 [1] [µM] | IC50 [2] [µM] | IC50 [3] [µM] | melting point [°C] | also measured
CN1CCN(C(=S)SCC(=O)Nc2ccc(C(=O)/C=C/c3ccccc3)cc2)CC1 [D2, (E)-2-((4-Cinnamoylphenyl)amino)-2-oxoethyl-4-methylpiperazine-1-carbodithioate] | > 20 | 9.35 ± 0.14 | > 20 |  | 
O=C(CCl)Nc1ccc(C(=O)/C=C/c2cccc(F)c2)cc1 [C2, (E)-2-Chloro-N-(4–(3-(3-fluorophenyl)acryloyl)phenyl)acetamide] | > 20 | 19.7 ± 0.67 | > 20 | 156 to 158 | 
CCN1CCN(C(=S)SCC(=O)Nc2ccc(C(=O)/C=C/c3ccccc3)cc2)CC1 [D3, (E)-2-((4-Cinnamoylphenyl)amino)-2-oxoethyl-4-ethylpiperazine-1-carbodithioate] | > 20 | 13.9 ± 0.18 | > 20 | 181 to 183 | fold activity loss against LSD1 (fluorine replaced with hydrogen) ([2]; D3 vs. D5): over 6 fold
O=C(CCl)Nc1ccc(C(=O)/C=C/c2ccc(F)cc2)cc1 [C4] | > 20 | > 20 | > 20 |  | 
CC(C)(C)OC(=O)N1CCN(C(=S)SCC(=O)Nc2ccc(C(=O)/C=C/c3ccccc3F)cc2)CC1 [D6, Tert-butyl-(E)-4-(((2-((4–(3-(2-fluorophenyl)acryloyl)phenyl)amino)-2-oxoethyl)thio)carbonothioyl)piperazine-1-carboxylate] | > 20 |  | > 20 |  | antiproliferative effects (cell viability) Caco-2 [4]: potential antiproliferative effects; antiproliferative effects (cell viability) IMR-32 [5]: potential antiproliferative effects; amount of H3K9me1 and H3K9me2 [6]: induce the accumulation of H3K9me1/2; also recorded: concentration dependent accumulation; also recorded: up-regulated the expression levels of H3K9me1 and H3K9me2; expression level of LSD1 [6]: did not affect; body weight of mice [7]: almost unchanged; global toxicity in xenograft model [7]: low global toxicity; also recorded: without apparent toxicity; tumour growth (tumour volume, tumour weight) [7]: significantly suppressed MOLT-4 xenograft tumour growth; also recorded: inhibited tumour growth remarkably; also recorded: inhibited in vivo tumour growth; inhibition at 0.4 µM [8]: 19%; inhibition at 0.4 µM ([1]; 400 nM, read-out: inhibition rate MAO-B): 17.7%; antiproliferative effects (cell viability) MOLT-4 ([9]; 4, 8, 16 μM, 48 h and 72 h): potential antiproliferative effects; antiproliferation efficiency ([9]; MOLT-4 cells, 48 h, 4 μM): around 80%; inhibition at 0.4 µM [10]: 16.3%; inhibition at 0.4 µM ([3]; 400 nM, read-out: inhibition rate MAO-A): 16.3%; antiproliferative effects (cell viability) 22RV1 [11]: potential antiproliferative effects
O=C(CCl)Nc1ccc(C(=O)/C=C/c2ccccc2F)cc1 [C3, (E)-2-Chloro-N-(4–(3-(2-fluorophenyl)acryloyl)phenyl)acetamide] | > 20 | 15.4 ± 0.28 | > 20 | 167 to 169 | 
CN1CCN(C(=S)SCC(=O)Nc2ccc(C(=O)/C=C/c3cccc(F)c3)cc2)CC1 [D4, (E)-2-((4–(3-(3-Fluorophenyl)acryloyl)phenyl)amino)-2-oxoethyl-4-methylpiperazine-1-carbodithioate] | > 20 | 6.03 ± 0.17 | > 20 |  | 
CCN1CCN(C(=S)SCC(=O)Nc2ccc(C(=O)/C=C/c3cccc(F)c3)cc2)CC1 [D5, (E)-2-((4–(3-(3-Fluorophenyl)acryloyl)phenyl)amino)-2-oxoethyl-4-ethylpiperazine-1-carbodithioate] | > 20 | 2.29 ± 0.35 | > 20 | 136 to 138 | 
Cc1ccc(Cn2cc(CSC(=S)N3CCN(C(=O)OC(C)(C)C)CC3)nn2)cc1 [Dithiocarbamate 26, reference compound] | > 20 |  | > 20 |  | 
CCN1CCN(C(=S)SCC(=O)Nc2ccc(C(=O)/C=C/c3ccc(F)cc3)cc2)CC1 [D1, (E)-2-((4–(3-(4-Fluorophenyl)acryloyl)phenyl)amino)-2-oxoethyl-4-ethylpiperazine-1-carbodithioate] | > 20 | 11.3 ± 0.13 | > 20 | 182 to 184 | 
O=C(CSC(=S)N1CCN(Cc2ccccc2)CC1)Nc1ccc(C(=O)/C=C/c2ccccc2F)cc1 [D7, (E)-2-((4–(3-(2-Fluorophenyl)acryloyl)phenyl)amino)-2-oxoethyl-4-benzylpiperazine-1-carbodithioate] | > 20 | 3.27 ± 0.13 | > 20 |  | 
Nc1ccc(C(=O)/C=C/c2ccccc2F)cc1 [Chalcone 4, reference compound] | > 20 | > 20 | > 20 |  | 
O=C(CCl)Nc1ccc(C(=O)/C=C/c2ccccc2)cc1 [C1, (E)-2-Chloro-N-(4-cinnamoylphenyl)acetamide] | > 20 | > 20 | > 20 | 145 to 147 | 
O=c1[nH]cc(F)c(=O)[nH]1 [5-Fluorouracil] |  |  |  |  | IC50 [12]: 4.02 µM; IC50 [13]: 4.17 µM; IC50 [14]: 2.1 µM; IC50 ([9]; Homo sapiens, MOLT-4 leukaemia cells, MTT, read-out: IC50 cell proliferation MOLT-4): 2.89 µM; IC50 [15]: 10.2 µM; IC50 [16]: 5.1 µM
